This note sets out measurements from patent US20080145313A1, “Compositions and Methods for the Treatment and Prevention of Neoplastic Disorders” (Genesis Research & Development Corporation Limited, priority 2006, published 2008).

The test system of one data set is A549 cells. In words: Growth inhibition of siRNA-transfected A549 cells, SYBR Green I DNA content. Format: cell-based, human. The following applies: A549 cells, 10 nM siRNA, DNA content 96 hours after transfection, transporter gene targets. An outline of the steps:
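A549 cells reverse-transfected with 10 nM Stealth siRNAs via Lipofectamine RNAiMAX, seeded at 5×10^3 cells/cm^2 in RPMI 1640/10% FCS; non-specific siRNA control. DNA content read 96 h post-transfection by SYBR Green I fluorescence (ex 485/em 535 nm) after freeze-thaw and Triton X-100 lysis; mean of three wells.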

Data set [1] concerns target transcript mRNA in A549 cells. In words: Level of mRNA of target transcript in A549 cells by quantitative RT-PCR (Tables 12 and 13). Particulars: 24 h post-transfection; for mRNA knockdown of transporter gene target transcript, 0.1 nM: 0.1 nM siRNA; for mRNA knockdown of transporter gene target transcript, 1 nM: 1 nM siRNA; for mRNA knockdown of transporter gene target transcript, 10 nM: 10 nM siRNA. Format: cell-based, human. The procedure, abridged:
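A549 cells were transfected with siRNA at 0.1, 1.0 and 10 nM. RNA was extracted 24 h later, reverse-transcribed with random primers, and target mRNA quantified by SYBR Green qRT-PCR. Values were normalised to housekeeping genes HPRT and Lamin.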

With “SEQ ID NO: 4925: siRNA targeting SLC25A1 (CIC) (chain 1 TAATCACATCCAGAGGAGTGTTTCC; chain 2 UAAUCACAUCCAGAGGAGUGUUUCC; chemistry not given here; one strand in two spellings)”, in the data set on A549 cells, the “Growth Inhibition in A549 cells by 10 nM siRNA” value (from here on “Growth Inhibition in A549 cells”) is on record as “− (no growth inhibition)”. In data set [1], the “mRNA knockdown of transporter gene target transcript, 0.1 nM” value (from here on “mRNA knockdown … 0.1 nM”) was “++ (70-90% mRNA knockdown)” and the “mRNA knockdown of transporter gene target transcript, 1 nM” value is “++ (70-90% mRNA knockdown)”.

For “SEQ ID NO: 4926: siRNA targeting SLC25A1 (CIC) (chain 1 AGTCCCACGTGTTCCGGTATTTGTG; chain 2 AGUCCCACGUGUUCCGGUAUUUGUG; chemistry not given here; one strand in two spellings)”, the “Growth Inhibition in A549 cells” value in the data set on A549 cells was “++ (inhibits by at least 75%)”. In data set [1], the “mRNA knockdown … 0.1 nM” value was “++ (70-90% mRNA knockdown)” and the “mRNA knockdown of transporter gene target transcript, 1 nM” value is on record as “++ (70-90% mRNA knockdown)”.

For “SEQ ID NO: 4927: siRNA targeting SLC25A1 (CIC) (chain 1 TGCCTTTGTAGAATGCCTTGAGCCC; chain 2 UGCCUUUGUAGAAUGCCUUGAGCCC; chemistry not given here; one strand in two spellings)”, the “Growth Inhibition in A549 cells” value with A549 cells was “− (no growth inhibition)”. For the same substance, in data set [1], the “mRNA knockdown … 0.1 nM” value is given as “++ (70-90% mRNA knockdown)” and the “mRNA knockdown of transporter gene target transcript, 1 nM” value is reported as “++ (70-90% mRNA knockdown)”.

Turning to “SEQ ID NO: 4928: siRNA targeting SLC25A10 (DIC) (chain 1 AATAAAGCTGGCGACAAAGTGAGTG; chain 2 AAUAAAGCUGGCGACAAAGUGAGUG; chemistry not given here; one strand in two spellings)”, in the data set on A549 cells, the “Growth Inhibition in A549 cells” value is listed as “++ (inhibits by at least 75%)”. Further, in data set [1], the “mRNA knockdown … 0.1 nM” value is listed as “++ (70-90% mRNA knockdown)” and the “mRNA knockdown of transporter gene target transcript, 1 nM” value was “++ (70-90% mRNA knockdown)”.

Regarding “SEQ ID NO: 4929: siRNA targeting SLC25A10 (DIC) (chain 1 TAGGTCATCTGTCTGCACAGCGAGG; chain 2 UAGGUCAUCUGUCUGCACAGCGAGG; chemistry not given here; one strand in two spellings)”, in the data set on A549 cells, the “Growth Inhibition in A549 cells” value was “− (no growth inhibition)”. In data set [1], the “mRNA knockdown … 0.1 nM” value was “− (<50% mRNA knockdown)” and the “mRNA knockdown of transporter gene target transcript, 1 nM” value is “+ (50-70% mRNA knockdown)”.

As for “SEQ ID NO: 4930: siRNA targeting SLC25A10 (DIC) (chain 1 TCCTGACGTTGACCAAGTCTGCGGG; chain 2 UCCUGACGUUGACCAAGUCUGCGGG; chemistry not given here; one strand in two spellings)”, the “Growth Inhibition in A549 cells” value in the data set with A549 cells is “− (no growth inhibition)”. Also, in data set [1], the “mRNA knockdown … 0.1 nM” value was “++ (70-90% mRNA knockdown)” and the “mRNA knockdown of transporter gene target transcript, 1 nM” value is “++ (70-90% mRNA knockdown)”.

Regarding “SEQ ID NO: 4931: siRNA targeting SLC29A1 (ENT1) (chain 1 TTGAAGATGGCACTGAGAGAGTTCC; chain 2 UUGAAGAUGGCACUGAGAGAGUUCC; chemistry not given here; one strand in two spellings)”, the “Growth Inhibition in A549 cells” value in the data set on A549 cells was “++ (inhibits by at least 75%)”. Moreover, in data set [1], the “mRNA knockdown … 0.1 nM” value was “++ (70-90% mRNA knockdown)”; the “mRNA knockdown of transporter gene target transcript, 1 nM” value is “++ (70-90% mRNA knockdown)”; the “mRNA knockdown of transporter gene target transcript, 10 nM” value is “+++ (>90% mRNA knockdown)”.

For the substance “SEQ ID NO: 4933: siRNA targeting SLC29A1 (ENT1) (chain 1 TGGAGACTGAAACTCCAGATTCCTC; chain 2 UGGAGACUGAAACUCCAGAUUCCUC; chemistry not given here; one strand in two spellings)”, the “Growth Inhibition in A549 cells” value with A549 cells is recorded as “+ (inhibits by at least 50%)”. Besides, in data set [1], the “mRNA knockdown … 0.1 nM” value is listed as “− (<50% mRNA knockdown)”; the “mRNA knockdown of transporter gene target transcript, 1 nM” value is recorded as “++ (70-90% mRNA knockdown)”; the “mRNA knockdown of transporter gene target transcript, 10 nM” value is listed as “++ (70-90% mRNA knockdown)”.

For “SEQ ID NO: 4934: siRNA targeting SLC29A2 (ENT2) (chain 1 TGTGAAGACCAACACAAGGCACAGC; chain 2 UGUGAAGACCAACACAAGGCACAGC; chemistry not given here; one strand in two spellings)”, the “Growth Inhibition in A549 cells” value with A549 cells is listed as “− (no growth inhibition)”. In addition, in data set [1], the “mRNA knockdown … 0.1 nM” value was “+ (50-70% mRNA knockdown)” and the “mRNA knockdown of transporter gene target transcript, 1 nM” value is on record as “− (<50% mRNA knockdown)”.

Consider “SEQ ID NO: 4935: siRNA targeting SLC29A2 (ENT2) (chain 1 TAACACACGATGGACATGAGGATGC; chain 2 UAACACACGAUGGACAUGAGGAUGC; chemistry not given here; one strand in two spellings)”, for which, in the data set with A549 cells, the “Growth Inhibition in A549 cells” value is reported as “− (no growth inhibition)”. Also, in data set [1], the “mRNA knockdown … 0.1 nM” value is recorded as “+ (50-70% mRNA knockdown)” and the “mRNA knockdown of transporter gene target transcript, 1 nM” value was “+ (50-70% mRNA knockdown)”.

Take “SEQ ID NO: 4936: siRNA targeting SLC29A2 (ENT2) (chain 1 AAGATCCAGGGTCAGAGCTACTTTC; chain 2 AAGAUCCAGGGUCAGAGCUACUUUC; chemistry not given here; one strand in two spellings)”: the “Growth Inhibition in A549 cells” value with A549 cells is “− (no growth inhibition)”. In data set [1], the “mRNA knockdown … 0.1 nM” value is recorded as “− (<50% mRNA knockdown)” and the “mRNA knockdown of transporter gene target transcript, 1 nM” value is on record as “− (<50% mRNA knockdown)”.

Consider “SEQ ID NO: 4937: siRNA targeting ATP2B1 (PMCA1) (chain 1 ATTTATGTAAGCTTGAACGACTGTC; chain 2 AUUUAUGUAAGCUUGAACGACUGUC; chemistry not given here; one strand in two spellings)”, for which the “Growth Inhibition in A549 cells” value in the data set on A549 cells is given as “− (no growth inhibition)”. For the same substance, in data set [1], the “mRNA knockdown … 0.1 nM” value is given as “++ (70-90% mRNA knockdown)” and the “mRNA knockdown of transporter gene target transcript, 1 nM” value is “++ (70-90% mRNA knockdown)”.

Take “SEQ ID NO: 4938: siRNA targeting ATP2B1 (PMCA1) (chain 1 AAATCTTGTCTATCCTCTCTTGCTC; chain 2 AAAUCUUGUCUAUCCUCUCUUGCUC; chemistry not given here; one strand in two spellings)”: the “Growth Inhibition in A549 cells” value in the data set with A549 cells is reported as “− (no growth inhibition)”. Besides, in data set [1], the “mRNA knockdown … 0.1 nM” value is on record as “+ (50-70% mRNA knockdown)” and the “mRNA knockdown of transporter gene target transcript, 1 nM” value is listed as “++ (70-90% mRNA knockdown)”.

For the substance “SEQ ID NO: 4939: siRNA targeting ATP2B1 (PMCA1) (chain 1 ATTAACAGTAAGTTGGAACTGAAGG; chain 2 AUUAACAGUAAGUUGGAACUGAAGG; chemistry not given here; one strand in two spellings)”, the “Growth Inhibition in A549 cells” value with A549 cells is given as “− (no growth inhibition)”. Also, in data set [1], the “mRNA knockdown … 0.1 nM” value is reported as “+ (50-70% mRNA knockdown)” and the “mRNA knockdown of transporter gene target transcript, 1 nM” value is listed as “++ (70-90% mRNA knockdown)”.

Regarding “SEQ ID NO: 4946: siRNA targeting ATP2B4 (PMCA4) (chain 1 AATATCACCAACCACAATCTCAGCC; chain 2 AAUAUCACCAACCACAAUCUCAGCC; chemistry not given here; one strand in two spellings)”, the “Growth Inhibition in A549 cells” value in the data set with A549 cells is recorded as “− (no growth inhibition)”. In data set [1], the “mRNA knockdown … 0.1 nM” value was “++ (70-90% mRNA knockdown)” and the “mRNA knockdown of transporter gene target transcript, 1 nM” value was “++ (70-90% mRNA knockdown)”.

For the substance “SEQ ID NO: 4947: siRNA targeting ATP2B4 (PMCA4) (chain 1 ATTACGCACAGCCTGATAATCCTGC; chain 2 AUUACGCACAGCCUGAUAAUCCUGC; chemistry not given here; one strand in two spellings)”, the “Growth Inhibition in A549 cells” value in the data set on A549 cells is given as “− (no growth inhibition)”. Moreover, in data set [1], the “mRNA knockdown … 0.1 nM” value is given as “++ (70-90% mRNA knockdown)” and the “mRNA knockdown of transporter gene target transcript, 1 nM” value is given as “++ (70-90% mRNA knockdown)”.

Regarding “SEQ ID NO: 4948: siRNA targeting ATP2B4 (PMCA4) (chain 1 ATCTGAGTCTGGATACGGTTCAGGC; chain 2 AUCUGAGUCUGGAUACGGUUCAGGC; chemistry not given here; one strand in two spellings)”, the “Growth Inhibition in A549 cells” value in the data set with A549 cells is on record as “− (no growth inhibition)”. Besides, in data set [1], the “mRNA knockdown … 0.1 nM” value was “− (<50% mRNA knockdown)” and the “mRNA knockdown of transporter gene target transcript, 1 nM” value is “++ (70-90% mRNA knockdown)”.

On to “SEQ ID NO: 4952: siRNA targeting ATP6V1B2 (chain 1 TACAACAGGACCTCTGTCAATGGGT; chain 2 UACAACAGGACCUCUGUCAAUGGGU; chemistry not given here; one strand in two spellings)”, for which the “Growth Inhibition in A549 cells” value with A549 cells is reported as “− (no growth inhibition)”. Further, in data set [1], the “mRNA knockdown … 0.1 nM” value is reported as “− (<50% mRNA knockdown)” and the “mRNA knockdown of transporter gene target transcript, 1 nM” value is on record as “+ (50-70% mRNA knockdown)”.

On to “SEQ ID NO: 4953: siRNA targeting ATP6V1B2 (chain 1 ATGATATCAAGGAAGTCTTCGGCCA; chain 2 AUGAUAUCAAGGAAGUCUUCGGCCA; chemistry not given here; one strand in two spellings)”, for which, in the data set on A549 cells, the “Growth Inhibition in A549 cells” value was “++ (inhibits by at least 75%)”. In addition, in data set [1], the “mRNA knockdown … 0.1 nM” value is reported as “− (<50% mRNA knockdown)” and the “mRNA knockdown of transporter gene target transcript, 1 nM” value was “+ (50-70% mRNA knockdown)”.
